The numbers were not newly measured in patent publication US7939518B2, “Method of treating post-surgical acute pain” (Aaipharma Inc., priority 2008, dated 2011), which cites them from elsewhere.

The series deals with cyclo-oxygenase.

On to `O=C(O)Cc1ccccc1Nc1c(Cl)cccc1Cl` [Diclofenac], for which the “Concentrations at which cyclo-oxygenase is inhibited” value is reported as “micromolar concentrations”.
